Tests used:
[1] = molecular target: ALK tyrosine kinase receptor (Homo sapiens) (UniProt Q9UM73)
Description: Inhibition of EML4 fused ALK in human NCI-H3122 cells assessed as cell growth inhibition measured after 72 hrs by SRB assay

[2] = molecular target: ALK tyrosine kinase receptor (Homo sapiens) (UniProt Q9UM73); remark: listed apart in the source
Description: Inhibition of EML4 fused ALK (unknown origin) expressed in mouse BA/F3 cells assessed as cell growth inhibition measured after 72 hrs by SRB assay

[3] = molecular target: ALK tyrosine kinase receptor (Homo sapiens, UniProt Q9UM73, G1202R); assay: Inhibition of ALK G1202R mutant (unknown origin) using peptide as substrate measured after 30 mins by fluorescence assay
[4] = molecular target: ALK tyrosine kinase receptor (Homo sapiens, UniProt Q9UM73, G1269A); assay: Inhibition of ALK G1269A mutant (unknown origin) using peptide as substrate measured after 30 mins by fluorescence assay
[5] = Inhibition of ALK T1151-L1152 insT mutant (unknown origin) using peptide as substrate measured after 30 mins by fluorescence assay; set-up: species or system Homo sapiens
[6] = molecular target: ALK tyrosine kinase receptor (Homo sapiens, UniProt Q9UM73, F1174L); assay: Inhibition of ALK F1174L mutant (unknown origin) using peptide as substrate measured after 30 mins by fluorescence assay
[7] = molecular target: ALK tyrosine kinase receptor (Homo sapiens, UniProt Q9UM73, C1156Y); assay: Inhibition of ALK C1156Y mutant (unknown origin) using peptide as substrate measured after 30 mins by fluorescence assay
[8] = Tmax in rat at 10 mg/kg administered via oral gavage by LC/MS/MS analysis; format: ADME, organism-based; settings: in vivo
[9] = Cmax in rat at 10 mg/kg administered via oral gavage by LC/MS/MS analysis; format: ADME, organism-based; set-up: dose 10 mg/kg, route oral; settings: in vivo
[10] = Half life in rat at 10 mg/kg administered via oral gavage by LC/MS/MS analysis; format: ADME, organism-based; settings: in vivo
[11] = AUCt in rat at 10 mg/kg administered via oral gavage by LC/MS/MS analysis; format: ADME, organism-based; settings: in vivo
[12] = AUC (infinity) in rat at 10 mg/kg administered via oral gavage by LC/MS/MS analysis; format: ADME, organism-based; set-up: dose 10 mg/kg, time infinity, route oral; settings: in vivo
Mus musculus = assay: Toxicity in BALB/c nu/nu mouse xenografted with human NCI-H3122 cells assessed as change in body weight at 50 mg/kg administered via oral gavage for 14 days; format: organism-based; settings: in vivo, 336 h

ALK tyrosine kinase receptor (Homo sapiens), sequence (Q9UM73 19-1620 limits assumed): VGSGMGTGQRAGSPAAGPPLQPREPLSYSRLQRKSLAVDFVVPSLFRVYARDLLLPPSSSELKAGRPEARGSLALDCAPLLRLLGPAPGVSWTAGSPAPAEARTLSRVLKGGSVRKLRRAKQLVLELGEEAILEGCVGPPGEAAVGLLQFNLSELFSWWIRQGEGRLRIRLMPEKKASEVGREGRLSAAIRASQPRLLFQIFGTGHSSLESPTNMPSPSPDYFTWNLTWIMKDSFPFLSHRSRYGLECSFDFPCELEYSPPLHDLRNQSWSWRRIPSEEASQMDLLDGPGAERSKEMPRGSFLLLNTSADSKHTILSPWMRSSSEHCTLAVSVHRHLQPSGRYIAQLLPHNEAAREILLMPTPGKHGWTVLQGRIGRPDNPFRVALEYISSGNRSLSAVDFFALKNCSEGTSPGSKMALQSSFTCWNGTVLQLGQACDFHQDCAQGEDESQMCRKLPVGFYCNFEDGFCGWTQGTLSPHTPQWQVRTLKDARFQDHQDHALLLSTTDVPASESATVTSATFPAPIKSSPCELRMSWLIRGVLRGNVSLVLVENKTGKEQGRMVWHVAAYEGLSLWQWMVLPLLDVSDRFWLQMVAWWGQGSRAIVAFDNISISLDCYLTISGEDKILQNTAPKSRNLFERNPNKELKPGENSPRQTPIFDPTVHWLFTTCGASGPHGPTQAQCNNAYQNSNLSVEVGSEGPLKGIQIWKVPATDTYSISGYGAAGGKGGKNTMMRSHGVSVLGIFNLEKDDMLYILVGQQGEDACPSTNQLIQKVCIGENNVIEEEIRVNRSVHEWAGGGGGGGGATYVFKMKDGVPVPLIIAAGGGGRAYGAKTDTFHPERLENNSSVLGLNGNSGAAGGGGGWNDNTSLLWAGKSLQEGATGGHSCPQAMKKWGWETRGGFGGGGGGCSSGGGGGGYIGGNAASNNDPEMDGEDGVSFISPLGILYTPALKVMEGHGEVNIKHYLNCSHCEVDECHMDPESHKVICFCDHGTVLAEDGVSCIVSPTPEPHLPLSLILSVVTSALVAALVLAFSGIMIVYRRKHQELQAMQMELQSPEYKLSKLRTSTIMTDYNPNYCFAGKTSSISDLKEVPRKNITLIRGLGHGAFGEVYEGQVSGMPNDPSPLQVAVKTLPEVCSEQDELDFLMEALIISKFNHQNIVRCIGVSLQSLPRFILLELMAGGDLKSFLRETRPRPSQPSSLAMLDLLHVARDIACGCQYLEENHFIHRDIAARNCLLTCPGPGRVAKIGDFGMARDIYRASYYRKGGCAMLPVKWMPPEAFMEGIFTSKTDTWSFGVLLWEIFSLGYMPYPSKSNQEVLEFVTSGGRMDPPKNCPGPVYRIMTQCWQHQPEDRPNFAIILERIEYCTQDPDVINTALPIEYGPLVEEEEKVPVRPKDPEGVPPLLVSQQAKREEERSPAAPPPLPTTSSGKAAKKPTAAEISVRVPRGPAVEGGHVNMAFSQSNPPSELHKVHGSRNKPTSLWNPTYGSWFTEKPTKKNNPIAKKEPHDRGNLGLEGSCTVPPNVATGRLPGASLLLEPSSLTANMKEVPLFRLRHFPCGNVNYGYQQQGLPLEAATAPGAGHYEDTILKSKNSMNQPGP
ALK tyrosine kinase receptor (Homo sapiens, UniProt Q9UM73, C1156Y), sequence (Q9UM73 19-1620 C1156Y limits assumed): as the sequence (Q9UM73 19-1620 limits assumed) above, with C1138Y counted along it
ALK tyrosine kinase receptor (Homo sapiens, UniProt Q9UM73, G1202R), sequence (Q9UM73 19-1620 G1202R limits assumed): as the sequence (Q9UM73 19-1620 limits assumed) above, with G1184R counted along it
ALK tyrosine kinase receptor (Homo sapiens, UniProt Q9UM73, G1269A), sequence (Q9UM73 19-1620 G1269A limits assumed): as the sequence (Q9UM73 19-1620 limits assumed) above, with G1251A counted along it
ALK tyrosine kinase receptor (Homo sapiens, UniProt Q9UM73, F1174L), sequence (Q9UM73 19-1620 F1174L limits assumed): as the sequence (Q9UM73 19-1620 limits assumed) above, with F1156L counted along it

Structure (SMILES)	CC50 [1] [µM]	CC50 [2] [µM]	further results
COc1cc(CCN)c(C)cc1Nc1ncc(Cl)c(Nc2ccccc2S(=O)(=O)C(C)C)n1	0.06	0.068	
COc1cc(C(C)(C)C#N)c(C)cc1Nc1ncc(Cl)c(Nc2ccccc2S(=O)(=O)C(C)C)n1	0.25	0.25	
COc1cc(C(C)(C)N(C)C)c(C)cc1Nc1ncc(Cl)c(Nc2ccccc2S(=O)(=O)C(C)C)n1	0.035	0.02	
COc1cc(CN(C)C)c(C)cc1Nc1ncc(Cl)c(Nc2ccccc2S(=O)(=O)C(C)C)n1	0.037	0.021	
COc1cc(CCN(C)C)c(C)cc1Nc1ncc(Cl)c(Nc2ccccc2S(=O)(=O)C(C)C)n1	0.013	0.01	IC50 [3]: 0.0018 µM; IC50 [4]: 0.0004 µM; IC50 [5]: 0.00063 µM; IC50 [6]: 0.00056 µM; IC50 [7]: 0.0011 µM; Tmax [8]: 4 h; Cmax [9]: 0.263 µg/mL; half-life [10]: 7.48 h; AUC(0-t) [11]: 3.75 µg·h/mL; AUC(0-inf) [12]: 4.25 µg·h/mL; Activity (Mus musculus): Non-Toxic
CNC(C)(C)c1cc(OC)c(Nc2ncc(Cl)c(Nc3ccccc3S(=O)(=O)C(C)C)n2)cc1C	0.029	0.015	
COc1cc(CC#N)c(C)cc1Nc1ncc(Cl)c(Nc2ccccc2S(=O)(=O)C(C)C)n1	0.074	0.061	
COc1cc(CNC=O)c(C)cc1Nc1ncc(Cl)c(Nc2ccccc2S(=O)(=O)C(C)C)n1		0.015	
CNCC(C)(C)c1cc(OC)c(Nc2ncc(Cl)c(Nc3ccccc3S(=O)(=O)C(C)C)n2)cc1C	0.041	0.019	
COc1cc(C(C)(C)CN(C)C)c(C)cc1Nc1ncc(Cl)c(Nc2ccccc2S(=O)(=O)C(C)C)n1	0.026	0.014	
CNCCc1cc(OC)c(Nc2ncc(Cl)c(Nc3ccccc3S(=O)(=O)C(C)C)n2)cc1C	0.02	0.013	
COc1cc(C(C)(C)CN)c(C)cc1Nc1ncc(Cl)c(Nc2ccccc2S(=O)(=O)C(C)C)n1	0.053	0.036	
Cc1cc(Nc2ncc(Cl)c(Nc3ccccc3S(=O)(=O)C(C)C)n2)c(OC(C)C)cc1C1CCNCC1 [CERITINIB]			IC50 [5]: 0.00063 µM; Tmax [8]: 7.33 h; half-life [10]: 10.3 h; AUC(0-t) [11]: 1.38 µg·h/mL; AUC(0-inf) [12]: 2.65 µg·h/mL; Activity (Mus musculus): Non-Toxic
CNCc1cc(OC)c(Nc2ncc(Cl)c(Nc3ccccc3S(=O)(=O)C(C)C)n2)cc1C	0.025	0.015	
COc1cc(C(C)(C)CNC=O)c(C)cc1Nc1ncc(Cl)c(Nc2ccccc2S(=O)(=O)C(C)C)n1	0.063	0.038	
COc1cc(CCNC=O)c(C)cc1Nc1ncc(Cl)c(Nc2ccccc2S(=O)(=O)C(C)C)n1	0.068	0.06	
COc1cc(C(C)(C)NC=O)c(C)cc1Nc1ncc(Cl)c(Nc2ccccc2S(=O)(=O)C(C)C)n1	0.052	0.024	
COc1cc(C(C)(C)N)c(C)cc1Nc1ncc(Cl)c(Nc2ccccc2S(=O)(=O)C(C)C)n1	0.012	0.012	
